In patent publication US9828379B2 (priority 2013, dated 2017):

Tests used:
[1] = biological target: T1, Mouse brain MAGL (Mus musculus, UniProt O35678); experiment: Mouse brain proteomes from inhibitor treated mice (oral gavage, ABPP analysis); format: in vivo; settings: p.o., sacrificed 4 h following administration
T1 construct: from tissue; host or cells: brain of wild-type C57Bl/6J mice dosed by oral gavage
T1 sequence (O35678 1-303): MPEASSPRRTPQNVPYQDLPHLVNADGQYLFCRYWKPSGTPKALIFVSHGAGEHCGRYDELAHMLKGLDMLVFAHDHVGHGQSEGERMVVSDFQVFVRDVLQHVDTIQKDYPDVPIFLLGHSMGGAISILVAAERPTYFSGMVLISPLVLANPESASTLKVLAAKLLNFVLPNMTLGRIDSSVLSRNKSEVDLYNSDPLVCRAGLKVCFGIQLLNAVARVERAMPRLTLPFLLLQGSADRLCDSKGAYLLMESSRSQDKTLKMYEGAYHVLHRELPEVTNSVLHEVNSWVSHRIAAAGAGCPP
Method: After 30 min, FP—Rh (1.0 μL, 50 μM in DMSO) was added and the mixture was incubated for another 30 min at 37° C. Reactions were quenched with SDS loading buffer (50 μL-4×) and run on SDS-PAGE. Following gel imaging, serine hydrolase activity was determined by measuring fluorescent intensity of gel bands corresponding to MAGL, ABHD6 and FAAH using ImageJ 1.43 u software.
Inhibitors were administered to wild-type C57Bl/6J by oral gavage in a vehicle of polyethylene glycol. Each animal was sacrificed 4 h following administration and brain proteomes were prepared and analyzed according to previously established methods (See Niphakis, M. J., et al. (2011) ACS Chem. Neurosci. and Long, J. Z., et al. Nat. Chem. Biol. 5:37-44).

[2] = biological target: T2, FAAH (Mus musculus, UniProt O08914); experiment: biochemical; settings: in vitro competitive ABPP
T2 sequence (O08914 1-579): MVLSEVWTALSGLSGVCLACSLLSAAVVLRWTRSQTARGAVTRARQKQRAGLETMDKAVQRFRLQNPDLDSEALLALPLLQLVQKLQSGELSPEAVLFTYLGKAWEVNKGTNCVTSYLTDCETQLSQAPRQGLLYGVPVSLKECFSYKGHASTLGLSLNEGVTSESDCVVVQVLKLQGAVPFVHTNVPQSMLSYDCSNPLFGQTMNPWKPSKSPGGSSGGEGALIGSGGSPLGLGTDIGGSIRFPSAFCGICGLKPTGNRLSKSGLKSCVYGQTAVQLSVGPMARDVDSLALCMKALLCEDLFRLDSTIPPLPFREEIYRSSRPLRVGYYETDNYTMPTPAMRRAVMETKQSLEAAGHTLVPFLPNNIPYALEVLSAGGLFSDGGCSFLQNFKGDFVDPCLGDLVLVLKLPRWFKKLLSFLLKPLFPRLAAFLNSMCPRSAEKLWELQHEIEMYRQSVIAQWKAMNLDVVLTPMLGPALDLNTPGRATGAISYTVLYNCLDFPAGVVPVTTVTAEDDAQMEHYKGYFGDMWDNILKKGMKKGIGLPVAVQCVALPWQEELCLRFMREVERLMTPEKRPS

[3] = biological target: T3, ABHD6 (Mus musculus, UniProt Q8R2Y0); experiment: biochemical; settings: in vitro competitive ABPP
T3 sequence (Q8R2Y0 1-336): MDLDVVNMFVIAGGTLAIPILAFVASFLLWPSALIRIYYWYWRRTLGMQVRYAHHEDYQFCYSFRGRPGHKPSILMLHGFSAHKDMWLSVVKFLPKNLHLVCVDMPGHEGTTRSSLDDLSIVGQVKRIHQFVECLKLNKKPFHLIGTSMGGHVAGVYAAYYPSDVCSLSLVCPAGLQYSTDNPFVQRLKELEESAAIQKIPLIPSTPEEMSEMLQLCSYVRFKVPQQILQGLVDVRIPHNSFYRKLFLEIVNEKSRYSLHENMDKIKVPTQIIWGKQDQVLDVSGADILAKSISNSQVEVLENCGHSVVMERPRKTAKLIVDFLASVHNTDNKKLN

[4] = biological target: T4, MAGL (Mus musculus, UniProt O35678); experiment: In vitro competitive activity-based protein profiling (Table 2, % inhibition at 1 μM); format: biochemical; settings: read-out: % Inhibition at 1 μM MAGL
T4 sequence (O35678 1-303): T1 sequence (O35678 1-303)
Method: After 30 min, FP—Rh (1.0 μL, 50 μM in DMSO) was added and the mixture was incubated for another 30 min at 37° C. Reactions were quenched with SDS loading buffer (50 μL-4×) and run on SDS-PAGE.
Cell lysates were diluted with mock proteomes for use in competitive ABPP experiments.

[5] = biological target: T2, FAAH; experiment: as above; format: biochemical; settings: read-out: % Inhibition at 1 μM FAAH
[6] = biological target: T3, ABHD6; experiment: as above; format: biochemical; settings: read-out: % Inhibition at 1 μM ABHD6
[7] = biological target: T4, MAGL; experiment: biochemical; settings: mouse; in vitro competitive ABPP; read-out: Mouse (IC50 value, nM) MAGL

Row | Compound | inhibition at 5 mg/kg [1] [%] | IC50 [2] [nM] | IC50 [3] [nM] | inhibition at 1 µM [4] [%] | inhibition at 1 µM [5] [%] | inhibition at 1 µM [6] [%] | IC50 [7] [nM]
1 | O=C(OC(C(F)(F)F)C(F)(F)F)N1CC2CN(Cc3cccc(Cl)c3N3CCC(F)CC3)CC2C1 (stereo not shown) [Example 159, 1,1,1,3,3,3-hexafluoropropan-2-yl 5-[[3-chloro-2-(4-fluoropiperidin-1-yl)phenyl]methyl]-octahydropyrrolo[3,4-c]pyrrole-2-carboxylate] | ≤ 25 | > 10000 | 1000 to 10000 | > 75 | < 25 | < 25 | < 100
2 | CCn1cc(CN2CC3CN(C(=O)OC(C(F)(F)F)C(F)(F)F)CC3C2)c(-c2ccc(N3CCCCC3)cc2)n1 (stereo not shown) [Example 133, 1,1,1,3,3,3-hexafluoropropan-2-yl 5-([1-ethyl-3-[4-(piperidin-1-yl)phenyl]-1H-pyrazol-4-yl]methyl)-octahydropyrrolo[3,4-c]pyrrole-2-carboxylate] | ≤ 25 | 1000 to 10000 | 1000 to 10000 | > 75 | < 25 | < 25 | < 100
3 | O=C(OC(C(F)(F)F)C(F)(F)F)N1CC2CN(Cc3cc(CN4CCOCC4)ccc3OC(F)(F)F)CC2C1 (stereo not shown) [Example 188, 1,1,1,3,3,3-hexafluoropropan-2-yl 5-(5-(morpholinomethyl)-2-(trifluoromethoxy)benzyl)hexahydropyrrolo[3,4-c]pyrrole-2(1H)-carboxylate] | ≥ 75 | 1000 to 10000 | 1000 to 10000 | > 75 | < 25 | < 25 | < 100
4 | CCn1cc(CN2CC3CN(C(=O)OC(C(F)(F)F)C(F)(F)F)CC3C2)c(-c2cccc(N3CCC3)c2)n1 (stereo not shown) [Example 66, 1,1,1,3,3,3-Hexafluoropropan-2-yl 5-([3-[3-(azetidin-1-yl)phenyl]-1-ethyl-1H-pyrazol-4-yl]methyl)-octahydropyrrolo[3,4-c]pyrrole-2-carboxylate] | ≤ 25 | 1000 to 10000 | 1000 to 10000 | > 75 | < 25 | 25 to 75 | < 100
5 | CCn1cc(CN2CC3CN(C(=O)OC(C(F)(F)F)C(F)(F)F)CC3C2)c(-c2cccc(N3CCOCC3)c2)n1 (stereo not shown) [Example 65, 1,1,1,3,3,3-Hexafluoropropan-2-yl 5-([1-ethyl-3-[3-(morpholin-4-yl)phenyl]-1H-pyrazol-4-yl]methyl)-octahydropyrrolo[3,4-c]pyrrole-2-carboxylate] | ≤ 25 | 1000 to 10000 | 1000 to 10000 | > 75 | < 25 | < 25 | < 100
6 | CC(C)n1cc(CN2CC3CN(C(=O)OC(C(F)(F)F)C(F)(F)F)CC3C2)c(C2CCN(S(C)(=O)=O)CC2)n1 (stereo not shown) [Example 57, 1,1,1,3,3,3-Hexafluoropropan-2-yl 5-[[3-(1-methanesulfonylpiperidin-4-yl)-1-(propan-2-yl)-1H-pyrazol-4-yl]methyl]-octahydropyrrolo[3,4-c]pyrrole-2-carboxylate] | ≤ 25 | > 10000 | 1000 to 10000 | > 75 | < 25 | 25 to 75 | < 100
7 | CCn1cc(CN2CC3CN(C(=O)OC(C(F)(F)F)C(F)(F)F)CC3C2)c(-c2ccccc2N2CCC2)n1 (stereo not shown) [Example 63, 1,1,1,3,3,3-Hexafluoropropan-2-yl 5-([3-[2-(azetidin-1-yl)phenyl]-1-ethyl-1H-pyrazol-4-yl]methyl)-octahydropyrrolo[3,4-c]pyrrole-2-carboxylate] | ≥ 75 | > 10000 | 100 to 1000 | > 75 | < 25 | 25 to 75 | < 100
8 | CC(C)n1cc(CN2CC3CN(C(=O)OC(C(F)(F)F)C(F)(F)F)CC3C2)c(-c2ccccc2Cl)n1 (stereo not shown) [Example 54, 1,1,1,3,3,3-Hexafluoropropan-2-yl 5-[[3-(2-chlorophenyl)-1-(propan-2-yl)-1H-pyrazol-4-yl]methyl]-octahydropyrrolo[3,4-c]pyrrole-2-carboxylate] | 25 to 75 | > 10000 | 100 to 1000 | > 75 | < 25 | 25 to 75 | < 100
9 | CCn1cc(CN2CC3CN(C(=O)OC(C(F)(F)F)C(F)(F)F)CC3C2)c(-c2cccc(N3CCCC3)c2)n1 (stereo not shown) [Example 64, 1,1,1,3,3,3-Hexafluoropropan-2-yl 5-([1-ethyl-3-[3-(pyrrolidin-1-yl)phenyl]-1H-pyrazol-4-yl]methyl)-octahydropyrrolo[3,4-c]pyrrole-2-carboxylate] | 25 to 75 | 1000 to 10000 | 1000 to 10000 | > 75 | < 25 | < 25 | < 100
10 | CCn1ncc(CN2CC3CN(C(=O)OC(C(F)(F)F)C(F)(F)F)CC3C2)c1C(=O)NC1CC1 (stereo not shown) [Example 74] | 25 to 75 | > 10000 | 100 to 1000 | > 75 | < 25 | 25 to 75 | < 100
11 | Cc1cc(CN2CC3CN(C(=O)OC(C(F)(F)F)C(F)(F)F)CC3C2)n(C2CCCCC2)n1 (stereo not shown) [Example 58, 1,1,1,3,3,3-Hexafluoropropan-2-yl 5-[(1-cyclohexyl-3-methyl-1H-pyrazol-5-yl)methyl]-octahydropyrrolo[3,4-c]pyrrole-2-carboxylate] | ≥ 75 | > 10000 | 1000 to 10000 | > 75 | < 25 | 25 to 75 | < 100
12 | CC(=O)N1CCN(c2cc(C(C)C)ccc2CN2CC3CN(C(=O)OC(C(F)(F)F)C(F)(F)F)CC3C2)CC1 (stereo not shown) [Example 24, 1,1,1,3,3,3-Hexafluoropropan-2-yl 5-[[2-(4-acetylpiperazin-1-yl)-4-(propan-2-yl)phenyl]methyl]-octahydropyrrolo[3,4-c]pyrrole-2-carboxylate] | ≤ 25 | > 10000 | 1000 to 10000 | > 75 | < 25 | 25 to 75 | < 100
13 | CS(=O)(=O)N1CCC2(CCN(c3ccccc3CN3CC4CN(C(=O)OC(C(F)(F)F)C(F)(F)F)CC4C3)C2)C1 (stereo not shown) [Example 134, 1,1,1,3,3,3-hexafluoropropan-2-yl 5-[(2-[7-methanesulfonyl-2,7-diazaspiro[4.4]nonan-2-yl]phenyl)methyl]-octahydropyrrolo[3,4-c]pyrrole-2-carboxylate] | ≤ 25 | 1000 to 10000 | 1000 to 10000 | > 75 | 25 to 75 | < 25 | < 100
